Measured values as given in patent US7662826B2, “Pyrazolo [1,5-a] pyrimidine derivative and nad (p) h oxidase inhibitor containing the same” (Shionogi & Co., Ltd., priority 2002, dated 2010).

Row | Compound | melting point
1 | COc1ccc(NC(=O)c2ccn3ncc(-c4ccc(Cl)cc4)c3n2)cc1N1CCNCC1 [Compound B317] | 210 to 212 °C
2 | CCNC1CCN(c2ccccc2NC(=O)Nc2cnc3c(-c4cccc(Cl)c4)cnn3c2)CC1 [Compound B58] | 157 to 159 °C (dec.)
3 | CCCCNC1CCN(c2ccccc2NC(=O)c2cnc3c(-c4ccc(Cl)cc4)cnn3c2)CC1 [Compound B23] | 222 to 224 °C
4 | Clc1cccc(-c2cnn3ccc(/C4=N/c5ccccc5N5CCCCC5CN4)nc23)c1 (stereo not shown) [Compound B292] | 190 to 191 °C
5 | CCCNC1CCN(c2ccccc2NC(=O)c2cnc3c(-c4ccc(Cl)cc4)cnn3c2)CC1 [Compound B19] | 235 to 237 °C
6 | NCCN[C@H]1CCN(c2ccccc2NC(=O)c2ccn3ncc(-c4cccc(Cl)c4)c3n2)C1 [Compound B173] | 160 to 162 °C
7 | CCCCNC1CCN(c2ccccc2NC(=O)c2cnc3c(-c4cccc(Cl)c4)cnn3c2)CC1 [Compound B8] | 191 to 192 °C
8 | C=CCNC1CCN(c2ccccc2NC(=O)Nc2cnc3c(-c4ccc(Cl)cc4)cnn3c2)CC1 [Compound B43] | 152 to 153 °C
9 | O=C(Nc1cnc2c(-c3cccc(Cl)c3)cnn2c1)c1ccccc1N1CCNCC1 [Compound B165] | 269 to 271 °C
10 | O=C(NCc1ccccc1N1CCNCC1)Nc1cnc2c(-c3ccc(Cl)cc3)cnn2c1 [Compound B263] | 185 to 187 °C
11 | O=C(Nc1ccccc1N1CC[C@@H](NCCO)C1)c1cnc2c(-c3ccc(Cl)cc3)cnn2c1 [Compound B245] | 164 to 165 °C
12 | O=C(Nc1ccccc1N1CC[C@@H](NCCO)C1)c1ccn2ncc(-c3cccc(Cl)c3)c2n1 [Compound B170] | 125 to 127 °C
13 | O=C(Nc1ccccc1N1CCC(O)CC1)c1cnc2c(-c3ccc(Cl)cc3)cnn2c1 [Compound B24] | 256 to 261 °C
14 | O=C(Nc1cnc2c(-c3ccc(Cl)cc3)cnn2c1)Nc1ccccc1N1CCNCC1 [Compound B218] | 183 to 184 °C
15 | CCNC1CCN(c2ccccc2NC(=O)c2cnc3c(-c4ccc(Cl)cc4)cnn3c2)CC1 [Compound B17] | 234 to 236 °C
16 | N[C@@H]1CCN(c2ccccc2NC(=O)c2cnc3c(-c4ccc(Cl)cc4)cnn3c2)C1 [Compound B28] | 184 to 186 °C
17 | O=C(Nc1ccccc1N1CCC[C@H]1CNCCO)c1cnc2c(-c3ccc(Cl)cc3)cnn2c1 [Compound B25] | 134 to 136 °C
18 | NC[C@H]1CCCN1c1ccccc1NC(=O)c1ccn2ncc(-c3ccc(Cl)cc3)c2n1 [Compound B318] | 186 to 188 °C
19 | CCCNC1CCN(c2ccccc2NC(=O)c2cnc3c(-c4cccc(Cl)c4)cnn3c2)CC1 [Compound B6] | 187 to 189 °C
20 | CCCNC1CCN(c2ccccc2NC(=O)Nc2cnc3c(-c4cccc(Cl)c4)cnn3c2)CC1 [Compound B199] | 152 to 155 °C
21 | O=C(Nc1ccc(N2CCNCC2)cc1)c1cnc2c(-c3ccc(Cl)cc3)cnn2c1 [Compound B280] | 267 to 269 °C (dec.)
22 | O=C(Nc1ccccc1N1CC[C@H](NCCO)C1)c1ccn2ncc(-c3cccc(Cl)c3)c2n1 [Compound B171] | 124 to 125 °C
23 | COc1ccc(NC(=O)c2ccn3ncc(-c4cccc(Cl)c4)c3n2)cc1N1CCNCC1 [Compound B314] | 100 to 102 °C (dec.)
24 | NCC1CCCCN1c1ccccc1NC(=O)c1ccn2ncc(-c3cccc(Cl)c3)c2n1 (stereo not shown) [Compound B316] | 159 to 160 °C
25 | NC[C@@H]1CCCN1c1ccccc1NC(=O)c1cnc2c(-c3ccc(Cl)cc3)cnn2c1 [Compound B30] | 203 to 204 °C
26 | O=C(NCc1ccccc1N1CCOCC1)c1ccn2nc(-c3ccccc3)cc2n1 [Example 12, N-(2-morpholinophenyl)methyl 2-phenyl-pyrazolo-[1,5-a]-pyrimidine-5-amide] | 190 to 192 °C

Row | Compound | melting point
27 | O=C1CCN(c2ccccc2NC(=O)c2cnc3c(-c4cccc(Cl)c4)cnn3c2)CC1 [Compound B1] | 212 °C
28 | CCCNC1CCN(c2ccccc2NC(=O)Nc2cnc3c(-c4ccc(Cl)cc4)cnn3c2)CC1 [Compound B41] | 151 to 153 °C
29 | CCCCNC1CCN(c2ccccc2NC(=O)Nc2cnc3c(-c4ccc(Cl)cc4)cnn3c2)CC1 [Compound B293] | 138 to 143 °C
30 | CNC1CCN(c2ccccc2NC(=O)c2cnc3c(-c4cccc(Cl)c4)cnn3c2)CC1 [Compound B3] | 215 to 217 °C
31 | O=C(Nc1ccccc1N1CCC[C@@H]1CNCCO)c1ccn2ncc(-c3cccc(Cl)c3)c2n1 [Compound B198] | 118 to 121 °C
32 | CCC(C)NC1CCN(c2ccccc2NC(=O)c2cnc3c(-c4ccc(Cl)cc4)cnn3c2)CC1 (stereo not shown) [Compound B243] | 229 to 231 °C
33 | CC(C)NC1CCN(c2ccccc2NC(=O)c2cnc3c(-c4cccc(Cl)c4)cnn3c2)CC1 [Compound B9] | 206 to 208 °C
34 | CNC1CCN(c2ccccc2NC(=O)Nc2cnc3c(-c4cccc(Cl)c4)cnn3c2)CC1 [Compound B55] | 117 to 128 °C (dec.)
35 | CNC[C@H]1CCCN1c1ccccc1NC(=O)c1ccn2ncc(-c3cccc(Cl)c3)c2n1 [Compound B215] | 97 to 98 °C
36 | NCCC1CCCCN1c1ccccc1NC(=O)c1ccn2ncc(-c3cccc(Cl)c3)c2n1.O=C(O)/C=C/C(=O)O (stereo not shown) [Compound B313] | 211 to 212 °C
37 | O=C(Nc1cnc2c(-c3cccc(Cl)c3)cnn2c1)Nc1ccccc1N1CCNCC1 [Compound B249] | 120 to 140 °C
38 | CC(C)NC1CCN(c2ccccc2NC(=O)Nc2cnc3c(-c4ccc(Cl)cc4)cnn3c2)CC1 [Compound B203] | > 300 °C
39 | NC[C@H]1CCCN1c1ccccc1NC(=O)c1ccn2ncc(-c3cccc(Cl)c3)c2n1 [Compound B196] | 168 to 170 °C
40 | CCC(C)NC1CCN(c2ccccc2NC(=O)Nc2cnc3c(-c4ccc(Cl)cc4)cnn3c2)CC1 (stereo not shown) [Compound B336] | > 300 °C
41 | CCC(C)NC1CCN(c2ccccc2NC(=O)c2cnc3c(-c4cccc(Cl)c4)cnn3c2)CC1 (stereo not shown) [Compound B11] | 202 to 204 °C
42 | CC(C)NC1CCN(c2ccccc2NC(=O)c2cnc3c(-c4ccc(Cl)cc4)cnn3c2)CC1 [Compound B18] | 246 to 247 °C
43 | C=CCNC1CCN(c2ccccc2NC(=O)Nc2cnc3c(-c4cccc(Cl)c4)cnn3c2)CC1 [Compound B59] | 150 to 154 °C (dec.)
44 | CCNC1CCN(c2ccccc2NC(=O)Nc2cnc3c(-c4ccc(Cl)cc4)cnn3c2)CC1 [Compound B38] | 155 to 157 °C
45 | NCCN[C@@H]1CCN(c2ccccc2NC(=O)c2ccn3ncc(-c4cccc(Cl)c4)c3n2)C1.O=C(O)/C=C/C(=O)O [Compound B172] | 151 to 152 °C
46 | O=C(Nc1cnc2c(-c3ccc(Cl)cc3)cnn2c1)c1ccccc1N1CCNCC1 [Compound B277] | 236 to 238 °C
47 | CNC1CCN(c2ccccc2NC(=O)c2cnc3c(-c4ccc(Cl)cc4)cnn3c2)CC1 [Compound B16] | 226 to 228 °C
48 | CCCNC1CCN(c2ccccc2NC(=O)C2=CNc3c(-c4ccc(Cl)cc4)cnn3C2)CC1 [Compound B319] | 216 to 217 °C
49 | O=C(NCc1ccccc1N1CCNCC1)Nc1cnc2c(-c3cccc(Cl)c3)cnn2c1 [Compound B40] | 196 to 197 °C
50 | C=CCNC1CCN(c2ccccc2NC(=O)c2cnc3c(-c4ccc(Cl)cc4)cnn3c2)CC1 [Compound B20] | 229 to 230 °C
51 | CCNC1CCN(c2ccccc2NC(=O)c2cnc3c(-c4cccc(Cl)c4)cnn3c2)CC1 [Compound B5] | 193 to 195 °C
52 | CNC1CCN(c2ccccc2NC(=O)Nc2cnc3c(-c4ccc(Cl)cc4)cnn3c2)CC1 [Compound B36] | 137 to 140 °C
